This note sets out measurements from ChEMBL document CHEMBL1155333, “Amine substituted N-(1H-benzimidazol-2ylmethyl)-5,6,7,8-tetrahydro-8-quinolinamines as CXCR4 antagonists with potent activity against HIV-1” (Bioorg Med Chem Lett, 2009).

A word on the IC50: it is the concentration that gives 50% inhibition. Read a low IC50 as greater potency. The CC50 is the concentration at which the toxic effect on the cells reaches its halfway point. Low values mean harm at low concentration, high ones better tolerance by the cells.

Calls of active or inactive are those of the source. No cut-off for these calls is given here.

Data set [1] deals with C-X-C chemokine receptor type 4 (Homo sapiens) (UniProt P61073). As to the kind of experiment: Antagonist activity at CXCR4 by noncompetitive binding assay.
Sequence of C-X-C chemokine receptor type 4 (Homo sapiens) (P61073 whole entry): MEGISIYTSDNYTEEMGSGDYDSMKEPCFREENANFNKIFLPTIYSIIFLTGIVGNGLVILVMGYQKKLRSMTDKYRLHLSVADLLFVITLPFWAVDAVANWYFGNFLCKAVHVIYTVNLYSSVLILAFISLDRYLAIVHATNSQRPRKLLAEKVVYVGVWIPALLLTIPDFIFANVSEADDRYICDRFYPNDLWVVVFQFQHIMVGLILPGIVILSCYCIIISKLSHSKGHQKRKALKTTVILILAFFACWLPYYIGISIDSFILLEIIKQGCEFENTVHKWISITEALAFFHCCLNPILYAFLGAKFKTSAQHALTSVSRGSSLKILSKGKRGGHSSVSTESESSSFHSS
The subject of data set [2] is Human immunodeficiency virus 1. As to the kind of experiment: Antiviral activity against HIV1 3B infected in human HOS cells. It counts as functional, organism-based. The conditions noted are these: Human immunodeficiency virus 1, 3B.
Data set [3] is described as follows: Cytotoxicity against human HOS cells. It counts as cell-based.
In data set [4] the test system is Human immunodeficiency virus 1. Nature of the data set: Ratio of AMD070 IC50 to compound IC50 for HIV1 3B infected in human HOS cells. It counts as functional.

As to `CN(Cc1nc2cccc(C(=O)NCCCN)c2[nH]1)C1CCCc2cccnc21` (stereo not given), the outcome in data set [1] was Active. The compound also yielded an IC50 in data set [2] of 134 nM. For the same compound, in data set [3], the 50% cytotoxic concentration (CC50) was above 20000 nM.

With `CN(Cc1nc2ccccc2n1CCCN)C1CCCc2cccnc21` (stereo not given), in data set [1], the result was Active. Besides, half-maximal inhibition in data set [2] (IC50) was put at 44 nM. The compound further had a CC50 in data set [3] above 20000 nM.

`CN(Cc1nc2c(CN3CCNCC3)cccc2[nH]1)C1CCCc2cccnc21` (stereo not given): the CC50 in data set [3] worked out at 12000 nM.

Take `CN(Cc1nc2ccccc2n1CCCNC(=N)N)C1CCCc2cccnc21` (stereo not given): in data set [1], the result was Active. In data set [2], this compound returned a concentration for half-maximal inhibition (IC50) of 26 nM. Also, in data set [3], the CC50 was above 20000 nM.

As to `CN(Cc1nc2cccc(C(=O)NCCc3cnc[nH]3)c2[nH]1)C1CCCc2cccnc21` (stereo not given), the outcome in data set [1] was Active. In addition, in data set [2], 19 nM corresponded to half-maximal inhibition (IC50). In addition, the CC50 in data set [3] is above 10000 nM.

Regarding `CN(Cc1nc2cccc(CCCN3CCCC3)c2[nH]1)C1CCCc2cccnc21` (stereo not given), in data set [1], the outcome was Active. The compound further yielded an IC50 in data set [2] of 23 nM.

In the case of `CN(Cc1nc2ccccc2[nH]1)C1CCCc2cccnc21` (stereo not given), in data set [1], the result was Active. This compound also gave an IC50 in data set [2] of 1350 nM. The CC50 in data set [3] stood at 5300 nM.

As to `CN(Cc1nc2c(CNCCc3c[nH]cn3)cccc2[nH]1)C1CCCc2cccnc21` (stereo not given), the CC50 in data set [3] is above 20000 nM.

As for `CN(Cc1nc2cccc(N3CCNCC3)c2[nH]1)C1CCCc2cccnc21` (stereo not given), the outcome in data set [1] was Active. The compound further gave an IC50 in data set [2] of 6 nM.

As to `CN(Cc1nc2cccc(CCCN3CCCCC3)c2[nH]1)C1CCCc2cccnc21` (stereo not given), the result in data set [1] was Active. In addition, the IC50 in data set [2] stood at 25 nM.

`CN1CCN(C(=O)c2cccc3[nH]c(CN(C)C4CCCc5cccnc54)nc23)CC1` (stereo not given) returned a CC50 in data set [3] above 10000 nM.

As to `CN(Cc1nc2cccc(CCCN)c2[nH]1)C1CCCc2cccnc21` (stereo not given), the outcome in data set [1] was Active. The compound also returned an IC50 in data set [2] of 24 nM.

Consider `CN(Cc1nc2ccccc2n1CCCNC(=O)C(F)(F)F)C1CCCc2cccnc21` (stereo not given), for which the result in data set [1] was Active. The compound further came in with an IC50 in data set [2] of 243 nM. The same compound came in with a CC50 in data set [3] of 10400 nM.

In the case of `CN(Cc1nc2cccc(CNCCc3cnc[nH]3)c2[nH]1)C1CCCc2cccnc21` (stereo not given), the outcome in data set [1] was Active. Also, the IC50 in data set [2] is 41 nM.

Consider `CN1CCN(c2cccc3nc(CN(C)[C@@H]4CCCc5cccnc54)[nH]c23)CC1`, for which, in data set [1], the result was Active. Also, the IC50 in data set [2] stood at 6.9 nM. In data set [3], this compound gave a CC50 of 12300 nM.

On to `CN(Cc1nc2c(C(=O)NCCN)cccc2[nH]1)C1CCCc2cccnc21` (stereo not given), for which the CC50 in data set [3] is above 10000 nM.

Turning to `CN(Cc1nc2cccc(N3CCN(C(=O)OC(C)(C)C)CC3)c2[nH]1)C1CCCc2cccnc21` (stereo not given), the outcome in data set [1] was Active. Moreover, the IC50 in data set [2] stood at 271 nM. The compound further showed a CC50 in data set [3] above 10000 nM.

Turning to `CN1CCN(c2cccc3nc(CN(C)C4CCCc5cccnc54)[nH]c23)CC1` (racemic), the outcome in data set [1] was Active. For the same compound, the IC50 in data set [2] was found to be 2 nM. The CC50 in data set [3] came to 14000 nM. Moreover, the “Ratio IC50” value in data set [4] was found to be 10.

Take `CN(C)CCCc1cccc2nc(CN(C)C3CCCc4cccnc43)[nH]c12` (stereo not given): in data set [1], the outcome was Active. The compound further yielded an IC50 in data set [2] of 22 nM.

Take `CN(Cc1nc2cccc(CN)c2[nH]1)C1CCCc2cccnc21` (stereo not given): the outcome in data set [1] was Active. The IC50 in data set [2] stood at 1300 nM. In addition, the CC50 in data set [3] is above 20000 nM.

`CN(C)CCCn1c(CN(C)C2CCCc3cccnc32)nc2ccccc21` (stereo not given): the outcome in data set [1] was Active. Half-maximal inhibition in data set [2] (IC50) required 17 nM. This compound also registered a CC50 in data set [3] of 16800 nM.

Regarding `CN1CCN(C(=O)c2cccc3nc(CN(C)C4CCCc5cccnc54)[nH]c23)CC1` (stereo not given), the result in data set [1] was Active. This compound had an IC50 in data set [2] of 33 nM.

On to `NCCCCN(Cc1nc2ccccc2[nH]1)[C@H]1CCCc2cccnc21` [MAVORIXAFOR], for which the outcome in data set [1] was Active. For the same compound, in data set [2], the IC50 came to 10 nM. The compound also gave a CC50 in data set [3] above 10000 nM.

Consider `CN(Cc1nc2c(CCCN3CCCC3)cccc2[nH]1)C1CCCc2cccnc21` (stereo not given), for which it took 8200 nM to reach half-maximal cytotoxicity in data set [3] (CC50).

For `CN(Cc1nc2cccc(C(=O)N3CCNCC3)c2[nH]1)C1CCCc2cccnc21` (stereo not given), the outcome in data set [1] was Active. 46 nM corresponded to half-maximal inhibition in data set [2] (IC50). In addition, the CC50 in data set [3] is above 20000 nM.

On to `CN1CCN(c2cccc3nc(CN(C)[C@H]4CCCc5cccnc54)[nH]c23)CC1`, for which the outcome in data set [1] was Active. In data set [2], the IC50 was determined as 0.6 nM. Also, in data set [3], the CC50 was determined as 12500 nM.

`CN(Cc1nc2cccc(CN3CCNCC3)c2[nH]1)C1CCCc2cccnc21` (stereo not given): in data set [1], the result was Active. The IC50 in data set [2] is 13 nM.

As to `CN(Cc1nc2cccc(C(=O)NCCCCN)c2[nH]1)C1CCCc2cccnc21` (stereo not given), in data set [1], the result was Active. For the same compound, the IC50 in data set [2] is 396 nM. Besides, the CC50 in data set [3] was above 20000 nM.

On to `CN(Cc1nc2ccccc2n1CCN)C1CCCc2cccnc21` (stereo not given), for which the result in data set [1] was Active. Moreover, in data set [2], the IC50 came out at 197 nM. Moreover, in data set [3], the CC50 was above 20000 nM.

Compound `CN(C)CCCc1cccc2[nH]c(CN(C)C3CCCc4cccnc43)nc12` (stereo not given) displayed a CC50 in data set [3] of 7500 nM.

On to `CN(Cc1nc2c(CCCN3CCCCC3)cccc2[nH]1)C1CCCc2cccnc21` (stereo not given), for which, in data set [3], it took 8700 nM to reach half-maximal cytotoxicity (CC50). This CC50 and that of the compound before are within 1.5-fold of each other.

Turning to `CN(Cc1nc2ccccc2n1CCCCCN)C1CCCc2cccnc21` (stereo not given), in data set [1], the result was Active. The same compound yielded an IC50 in data set [2] of 228 nM. This compound also gave a CC50 in data set [3] of 4500 nM.

Take `CN(Cc1nc2c(CCCN)cccc2[nH]1)C1CCCc2cccnc21` (stereo not given): it took 10000 nM to reach half-maximal cytotoxicity in data set [3] (CC50).

Take `CN(Cc1nc2ccccc2n1CCCCN)C1CCCc2cccnc21` (stereo not given): the outcome in data set [1] was Active. In data set [2], this compound showed an IC50 of 144 nM. Also, in data set [3], the midpoint of cytotoxicity, the CC50, lay at 2900 nM.

Turning to `CN(Cc1nc2cccc(CNCCN)c2[nH]1)C1CCCc2cccnc21` (stereo not given), the outcome in data set [1] was Active. The same compound returned an IC50 in data set [2] of 540 nM. Also, the CC50 in data set [3] is above 20000 nM.

The compound `CN(Cc1nc2c(N3CCNCC3)cccc2[nH]1)C1CCCc2cccnc21` (stereo not given) gave a CC50 in data set [3] above 20000 nM.

As for `CN(Cc1nc2cccc(C(=O)NCCN)c2[nH]1)C1CCCc2cccnc21` (stereo not given), the result in data set [1] was Active. The IC50 in data set [2] was found to be 27 nM.
